Among the test systems are SNB-19 CNS; LOX IMVI melanoma; K-562 leukemia; T-47D breast; NCI-H23 lung; MDA-MB-231 breast; MCF7 breast; IGROV1 ovarian; SF-539 CNS; RPMI-8226 leukemia; UO-31 renal; SK-MEL-2 melanoma.
Holding throughout (assay): DTP human tumour cell line panel, 48 h

Molecules are shown by their SMILES.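 How tested: cells in 96-well plates exposed to compound for 48 hours at five concentrations. TGI marks complete inhibition of growth.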

Experimental findings from PubChem BioAssay (NCI) are described below.

One may read the TGI as the concentration at which net growth stops. A lower TGI goes with greater sensitivity of the cells. With `C=CCC1(C(=O)OC)CCC/C(=N\O)C1` (stereo unspecified), the TGI with SNB-19 CNS, in the test on LOX IMVI melanoma, in the test on K-562 leukemia, with T-47D breast, in the test on NCI-H23 lung and with MDA-MB-231 breast was > 10 µM each time. For the same compound, the TGI with MCF7 breast, with IGROV1 ovarian, with SF-539 CNS and in the test on RPMI-8226 leukemia was > 10 µM each time.
Regarding `O=C(O)/C=C/c1ccc(Oc2ccccc2C(=O)O)o1`, the TGI in the test with SNB-19 CNS, in the test with LOX IMVI melanoma, in the test with K-562 leukemia, in the test with T-47D breast, in the test on NCI-H23 lung and with MDA-MB-231 breast was > 10 µM in each case. Also, the TGI in the test with MCF7 breast, in the test with IGROV1 ovarian, in the test with SF-539 CNS and in the test with RPMI-8226 leukemia was > 10 µM in each case.
For the compound `Cc1c(NC(=S)Nc2ccc([N+](=O)[O-])cc2)c(=O)n(-c2ccccc2)n1C`, the TGI in the test with SNB-19 CNS, in the test with LOX IMVI melanoma, in the test on K-562 leukemia, in the test with NCI-H23 lung, in the test with MDA-MB-231 breast and with MCF7 breast was > 100 µM each time. Also, the TGI in the test with IGROV1 ovarian, in the test on SF-539 CNS, with RPMI-8226 leukemia and in the test on UO-31 renal was > 100 µM throughout.
For the compound `COc1ccc(N2C(=O)C3CC(c4ccc(Br)cc4)c4c([nH]c5ccccc45)C3C2=O)cc1` (stereo unspecified), the TGI worked out at 10.5 µM in the test on SNB-19 CNS; 16.3 µM with LOX IMVI melanoma; 27.8 µM in the test on K-562 leukemia; 28.5 µM with NCI-H23 lung; 26.2 µM in the test on IGROV1 ovarian; 11.7 µM with SF-539 CNS. Further, the TGI in the test on RPMI-8226 leukemia is > 100 µM; with UO-31 renal, 27.1 µM; with SK-MEL-2 melanoma it was > 100 µM.
As to `O=P1(c2ccccc2)C(c2ccccc2)CCC1c1ccccc1` (stereo unspecified), the TGI in the test on SNB-19 CNS, in the test on LOX IMVI melanoma, in the test on K-562 leukemia, in the test on NCI-H23 lung, in the test on MDA-MB-231 breast and with MCF7 breast was > 100 µM each time. The TGI in the test with IGROV1 ovarian is > 100 µM; in the test on SF-539 CNS it was > 100 µM; in the test on RPMI-8226 leukemia, 78.2 µM; with UO-31 renal it was > 100 µM.
As to `CC(=O)OCc1c(O)c2c([nH]c1=O)CCc1ccccc1-2`, the TGI with SNB-19 CNS is > 350 µM; in the test with LOX IMVI melanoma, 131 µM; in the test on K-562 leukemia, > 350 µM; in the test on NCI-H23 lung it was 218 µM; in the test with IGROV1 ovarian, > 350 µM; in the test with SF-539 CNS it was 177 µM. Besides, the values for the TGI in the test with RPMI-8226 leukemia and in the test on SK-MEL-2 melanoma were > 350 µM and > 35 µM, respectively.
For `CC(C)(C)OC(=O)NCC(CNC(=O)OC(C)(C)C)C(N)=O`, the TGI in the test on SNB-19 CNS, in the test on LOX IMVI melanoma, in the test with K-562 leukemia, in the test with T-47D breast, in the test with NCI-H23 lung and with MDA-MB-231 breast was > 100 µM each time. Further, the TGI in the test with MCF7 breast, in the test with IGROV1 ovarian, in the test on SF-539 CNS, in the test with RPMI-8226 leukemia and with UO-31 renal was > 100 µM each time.
For the compound `O=C1C(Cl)=C(Cl)C(=O)C(CCNc2nccs2)=C1Cl`, the TGI was > 100 µM in the test with SNB-19 CNS; > 100 µM with K-562 leukemia; > 100 µM in the test on T-47D breast; 59.3 µM in the test on NCI-H23 lung; > 100 µM with MCF7 breast; 42.2 µM in the test with IGROV1 ovarian. Also, the results for the TGI in the test on SF-539 CNS, in the test on UO-31 renal and with SK-MEL-2 melanoma were > 100 µM, 46.4 µM and 75.6 µM, respectively.
For `COC(NC(=O)Nc1ccc(C)cc1)(C(F)(F)F)C(F)(F)F`, the TGI is 87.2 µM in the test on SNB-19 CNS; > 100 µM with LOX IMVI melanoma; > 100 µM in the test on K-562 leukemia; 97.7 µM in the test on T-47D breast; 89.8 µM with NCI-H23 lung; 99 µM with MDA-MB-231 breast. Moreover, the TGI in the test on MCF7 breast was > 100 µM; in the test on IGROV1 ovarian, > 100 µM; in the test on SF-539 CNS, > 100 µM; in the test with RPMI-8226 leukemia, 74.8 µM; with UO-31 renal, 53.6 µM.
For the compound `CCCCN(CC)C(=O)C(=O)Cc1nc2ccc(C(=O)c3ccccc3)cc2[nH]c1=O`, the concentration for total growth inhibition (TGI) was > 100 µM in the test on SNB-19 CNS; > 100 µM in the test on LOX IMVI melanoma; > 31.6 µM with K-562 leukemia; > 100 µM with NCI-H23 lung; > 100 µM with IGROV1 ovarian; > 100 µM in the test with SF-539 CNS. The total growth inhibition concentration (TGI) is > 31.6 µM with RPMI-8226 leukemia and > 100 µM with UO-31 renal.
As for `CC(C)(C)C1=C(Br)C(F)(C(C)(C)C)OP1(=O)c1ccccc1` (stereo unspecified), the TGI in the test on SNB-19 CNS was 30.6 µM; with LOX IMVI melanoma it was 36.4 µM; in the test with K-562 leukemia, 22.9 µM; in the test with T-47D breast, 42.1 µM; in the test with NCI-H23 lung it was 37.9 µM; in the test on MCF7 breast, 30 µM. Also, the TGI in the test with IGROV1 ovarian amounted to 29.7 µM; in the test on SF-539 CNS, 33.2 µM; with UO-31 renal it was 59.4 µM; in the test on SK-MEL-2 melanoma, 36.5 µM.
As to `COC(=O)c1ccc(NCc2cc(OC)ccc2OC)cc1`, the TGI in the test with SNB-19 CNS, with LOX IMVI melanoma, in the test with K-562 leukemia, in the test on NCI-H23 lung, in the test on MDA-MB-231 breast and with MCF7 breast was > 100 µM in each case. Also, the TGI with IGROV1 ovarian, in the test with SF-539 CNS, in the test on RPMI-8226 leukemia, with UO-31 renal and in the test with SK-MEL-2 melanoma was > 100 µM each time.
In the case of `NCC(=O)Nc1ccccc1`, the TGI in the test on SNB-19 CNS, in the test with LOX IMVI melanoma, in the test on K-562 leukemia, in the test on T-47D breast, in the test with NCI-H23 lung and in the test with MDA-MB-231 breast was > 100 µM in each case. The TGI in the test with IGROV1 ovarian, in the test with UO-31 renal and in the test with SK-MEL-2 melanoma was > 100 µM throughout.
